# Test results: ChEMBL document CHEMBL5230110, “FabI (enoyl acyl carrier protein reductase) - A potential broad spectrum therapeutic target and its inhibitors” (Eur J Med Chem, 2020)
# Experiments:
# Escherichia coli [1] = assay: Antibacterial activity against Escherichia coli assessed as bacterial growth inhibition at 50 uM measured after 24 hrs by 96-wellplate reader assay method; assay type: functional
# [2] = system: Mycobacterium tuberculosis; assay: Antimycobacterial activity against Mycobacterium tuberculosis H37Rv assessed as reduction in bacterial growth incubated for 7 days by dye based assay; assay type: functional; details: 168 h, time 7 day
# Staphylococcus aureus [3] = assay: Antibacterial activity against Staphylococcus aureus assessed as inhibition of bacterial growth measured after 24 hrs; assay type: functional
# Moraxella catarrhalis = assay: Antibacterial activity against Moraxella catarrhalis assessed as inhibition in bacterial growth measured after 24 hrs by broth microdilution method; assay type: functional
# [4] = Inhibition of Francisella tularensis FabI by addition of crotonyl-CoA as substrate preincubated for 10 mins followed by substrate addition in presence of NAD by spectrophotometer
# Staphylococcus aureus [5] = assay: Antibacterial activity against Staphylococcus aureus ATCC 29213 assessed as bacterial growth inhibition incubated for 24 hrs by broth dilution method; assay type: functional
# Staphylococcus aureus [6] = assay: Antibacterial activity against Methicillin-resistant Staphylococcus aureus ATCC 33592 assessed as bacterial growth inhibition measured after 24 hrs by broth dilution method; assay type: functional
# Staphylococcus aureus [7] = assay: Antibacterial activity against Methicillin-resistant Staphylococcus aureus N315 assessed as reduction in bacterial growth; assay type: functional
# [8] = target: T1, Enoyl-[acyl-carrier-protein] reductase [NADPH] FabI (Staphylococcus aureus, UniProt Q6GI75); assay: Inhibition of Staphylococcus aureus FabI in the presence of NADH using crotonyl CoA as substrate by measuring NADH consumption rate
# T1 sequence (Q6GI75 whole entry): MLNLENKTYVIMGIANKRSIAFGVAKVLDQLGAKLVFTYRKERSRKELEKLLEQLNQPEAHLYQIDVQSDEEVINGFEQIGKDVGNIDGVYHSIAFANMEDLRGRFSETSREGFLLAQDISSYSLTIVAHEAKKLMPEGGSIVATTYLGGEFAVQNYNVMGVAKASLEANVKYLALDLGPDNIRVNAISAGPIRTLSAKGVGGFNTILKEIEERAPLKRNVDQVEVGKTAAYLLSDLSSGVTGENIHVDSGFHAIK
# [9] = target: T2, Enoyl-[acyl-carrier-protein] reductase [NADH] FabI (Escherichia coli K-12, UniProt P0AEK4); assay: Inhibition of Escherichia coli FabI in the presence of NADH using crotonyl CoA as substrate by measuring NADH consumption rate
# T2 sequence (P0AEK4 whole entry): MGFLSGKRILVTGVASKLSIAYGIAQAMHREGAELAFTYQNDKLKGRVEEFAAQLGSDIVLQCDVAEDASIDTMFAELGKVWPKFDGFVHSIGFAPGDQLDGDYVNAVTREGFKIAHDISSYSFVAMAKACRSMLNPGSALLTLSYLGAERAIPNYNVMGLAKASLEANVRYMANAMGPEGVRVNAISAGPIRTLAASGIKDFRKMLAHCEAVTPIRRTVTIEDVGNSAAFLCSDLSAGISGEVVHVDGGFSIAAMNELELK
# HeLa = assay: Cytotoxicity against human HeLa cells assessed as inhibition of cell growth incubated for 48 hrs by CCK8 assay; assay type: functional, cell-based
# Staphylococcus aureus [10] = assay: Antibacterial activity against methicillin resistant Staphylococcus aureus assessed as reduction in bacterial growth incubated for 12 hrs by microdilution method; assay type: functional
# [11] = Cytotoxicity against mouse MH-S cells; assay type: functional, cell-based
# Staphylococcus aureus [12] = assay: Antibacterial activity against methicillin-sensitive Staphylococcus aureus assessed as reduction in bacterial growth incubated for 12 hrs by microdilution method; assay type: functional
# Bacillus anthracis = assay: Antibacterial activity against Bacillus anthracis assessed as reduction in bacterial growth measured after 24 hrs by broth microdilution method; assay type: functional
# [13] = Inhibition of Bacillus anthracis enoyl ACP reductase assessed as inhibition of bacterial growth
# Staphylococcus aureus [14] = assay: Bactericidal activity against methicillin-resistant Staphylococcus aureus measured after 24 hrs by sub-culturing; assay type: functional
# [15] = system: Mycobacterium tuberculosis; assay: Antibacterial activity against Mycobacterium tuberculosis assessed as inhibition of […]; assay type: functional
# Staphylococcus aureus [16] = assay: Antibacterial activity against Staphylococcus aureus assessed as inhibition of bacterial growth measured after 24 hrs by micro-dilution broth method; assay type: functional
# Enterobacter cloacae = assay: Antibacterial activity against Enterobacter cloacae assessed as inhibition of bacterial growth measured after 24 hrs by micro-dilution broth method; assay type: functional
# Acinetobacter baumannii [17] = assay: Antibacterial activity against Acinetobacter baumannii W41979 assessed as inhibition of bacterial growth measured after 24 hrs by micro-dilution broth method; assay type: functional
# Pseudomonas aeruginosa = assay: Antibacterial activity against Pseudomonas aeruginosa assessed as bacterial growth inhibition measured after 24 hrs by micr-dilution broth method; assay type: functional
# Escherichia coli [18] = assay: Antibacterial activity against Escherichia coli assessed as inhibition of bacterial growth measured after 24 hrs by micro-dilution broth method; assay type: functional
# Klebsiella pneumoniae [19] = assay: Antibacterial activity against Klebsiella pneumoniae BAA-1705 assessed as inhibition of bacterial growth measured after 24 hrs by micro-dilution broth method; assay type: functional
# Staphylococcus aureus [20] = assay: Antibacterial activity against methicillin-resistant Staphylococcus aureus ATCC 4330 assessed as reduction in bacterial growth; assay type: functional
# Staphylococcus aureus [21] = assay: Antibacterial activity against Methicillin-sensitive Staphylococcus aureus ATCC 4330 assessed as reduction in bacterial growth; assay type: functional
# Staphylococcus aureus [22] = assay: Antibacterial activity against quinolone-resistant Staphylococcus aureus; assay type: functional
# [23] = target: T1, Enoyl-[acyl-carrier-protein] reductase [NADPH] FabI; assay: Inhibition of Staphylococcus aureus ATCC 29213 FabI in the presence of NADH using crotonyl CoA as substrate by measuring NADH consumption rate
# Escherichia coli [24] = assay: Antibacterial activity against Escherichia coli BAA 2340 assessed as reduction in microbial growth inhibition; assay type: functional
# Klebsiella pneumoniae [25] = assay: Antibacterial activity against Klebsiella pneumoniae BAA-1705; assay type: functional
# Acinetobacter baumannii [26] = assay: Antibacterial activity against Acinetobacter baumannii W41979; assay type: functional
smiles,measurement,setting,value
Oc1ccccc1Oc1ccccc1,MIC,Escherichia coli [1],3.7 µg/mL
Cc1ccc(Oc2ccccc2)c(O)c1,MIC,Escherichia coli [1],1 µg/mL
Oc1cc(F)ccc1Oc1ccccc1,MIC,Escherichia coli [1],0.6 µg/mL
Oc1cc(Cl)ccc1Oc1ccccc1,MIC,Escherichia coli [1],0.07 µg/mL
Cc1csc(C(C)(O)c2nnc(Nc3ccn(Cc4c(F)cccc4F)n3)s2)n1 (centres undefined),MIC,[2],0.2 µM
O=C(c1ccc(Cl)cc1O)N1CCc2c(n(Cc3ccc(O)cc3)c3ccccc23)C1,MIC,Staphylococcus aureus [3],1 µg/mL
same,MIC,Moraxella catarrhalis,2 µg/mL
CC(c1ccc(Cl)c(Cl)c1)n1cnc2cc3c(cc21)CCC3 (centres undefined),IC50,[4],18 nM
same,MIC,Staphylococcus aureus [5],5.5 µg/mL
same,MIC,Staphylococcus aureus [6],6.3 µg/mL
CC(c1ccc(Cl)c(Cl)c1)n1cnc2cc3c(cc21)CCCC3 (centres undefined),IC50,[4],14 nM
same,MIC,Staphylococcus aureus [5],3.1 µg/mL
same,MIC,Staphylococcus aureus [6],3.1 µg/mL
COc1ccc(Cn2cnc3cc4c(cc32)CCC4)cc1C,IC50,[4],5 nM
same,MIC,Staphylococcus aureus [5],> 12.5 µg/mL
same,MIC,Staphylococcus aureus [6],> 12.5 µg/mL
Cc1ccc(Oc2coc(COc3ccccc3)cc2=O)c(C)c1,MIC,Staphylococcus aureus [7],1.56 µg/mL
same,IC50,[8],380000 nM
Cc1cc(Cl)ccc1Oc1coc(/C=C/c2ccc[nH]2)cc1=O,IC50,[9],140 nM
Cc1cc(Cl)ccc1Oc1c[nH]c(COc2ccccc2)cc1=O,IC50,[9],400 nM
Cc1cc(Cl)ccc1Oc1cn(C)c(COc2ccccc2)cc1=O,IC50,[9],110 nM
Cc1ccc(Oc2cn(C)c(COc3ccccc3)cc2=O)c(C)c1,MIC,Staphylococcus aureus [7],0.049 µg/mL
same,IC50,[8],80000 nM
O=[N+]([O-])c1ccc(Oc2ccc(Cl)cc2O)c(Cl)c1,EC50,HeLa,29.3 µg/mL
same,MIC,Staphylococcus aureus [10],0.3 µg/mL
same,EC50,[11],9.9 µg/mL
same,MIC,Staphylococcus aureus [12],0.1 µg/mL
same,MIC,Bacillus anthracis,< 0.1 µg/mL
same,IC50,[13],300 nM
same,MBC,Staphylococcus aureus [14],0.5 µg/mL
OB1c2ccccc2N=C(S)N1c1cccnc1,MIC,[15],8 µg/mL
Cc1cc(=O)n(C)c2c3c4c(cc12)c(C)cc(=O)n4C(CN)CO3 (centres undefined),MIC,Staphylococcus aureus [16],0.05 µg/mL
same,MIC,Enterobacter cloacae,0.5 µg/mL
same,MIC,Acinetobacter baumannii [17],2 µg/mL
same,MIC,Pseudomonas aeruginosa,> 16 µg/mL
same,MIC,Escherichia coli [18],0.5 µg/mL
same,MIC,Klebsiella pneumoniae [19],1 µg/mL
Cc1c(CN(C)C(=O)/C=C/c2cnc3c(c2)C(C)(C)C(=O)N3)oc2ccccc12,MIC,Staphylococcus aureus [20],0.015 µg/mL
same,MIC,Staphylococcus aureus [21],0.015 µg/mL
Cc1cc(=O)n(C)c2c3c4c(cc12)c(C)cc(=O)n4CCO3,MIC,Staphylococcus aureus [16],0.06 µg/mL
same,MIC,Enterobacter cloacae,> 32 µg/mL
same,MIC,Acinetobacter baumannii [17],16 µg/mL
same,MIC,Pseudomonas aeruginosa,> 32 µg/mL
same,MIC,Escherichia coli [18],> 32 µg/mL
same,MIC,Klebsiella pneumoniae [19],> 32 µg/mL
CN1C(=O)[C@@H](c2cc(Cl)c(O)c(Cl)c2)NC(=O)[C@@H]2NC(=O)[C@@H](c3cc(Cl)c(O)c(Cl)c3)NC(=O)[C@H](NC(=O)C(=O)c3cc(Cl)c(O)c(Cl)c3)Cc3cc4ccc(cc4[nH]3)-c3cc2cc(c3O)Oc2ccc(cc2)C[C@H]1C(=O)N[C@@H](C(=O)O)c1ccc(O)cc1,MIC,Staphylococcus aureus [22],2 µg/mL
same,IC50,[23],500 nM
O=c1ccn(Cc2cccc(Br)c2)cc1C(O)c1c(Cl)cccc1Cl (centres undefined),IC50,[9],430 nM
Cc1c(CN(C)C(=O)/C=C/c2cnc3c(c2)CC(N)C(=O)N3)oc2ccccc12.Cl (centres undefined),MIC,Staphylococcus aureus [5],0.031 µg/mL
same,MIC,Escherichia coli [24],4 µg/mL
same,MIC,Klebsiella pneumoniae [25],8 µg/mL
same,MIC,Acinetobacter baumannii [26],4 µg/mL
Cc1c(CN(C)C(=O)/C=C/c2cnc3c(c2)C2(CCC2)C(=O)N3)sc2ccccc12,MIC,Staphylococcus aureus [20],0.015 µg/mL
same,MIC,Staphylococcus aureus [21],0.015 µg/mL
